Experimental data from article PMC9694544, “Conteltinib (CT-707) in patients with advanced ALK-positive non-small cell lung cancer: a multicenter, open-label, first-in-human phase 1 study” (BMC Medicine, 2022).
Read-outs that look alike come from different tables or passages of the source.

What was measured:
[1] = tested on: xenograft models of ALK-positive NSCLC; details: crizotinib-sensitive and crizotinib-resistant tumors; cited from earlier work
[2] = clinical; details: human, in vivo; for half-life: read-out: T1/2 (converted); for Tmax: read-out: Tmax
Method: For single-dose PK parameters, plasma samples were taken at pre-dose and 0.5 h, 1 h, 2 h, 3 h, 4 h, 6 h, 8 h, 12 h, 24 h, 48 h, 72 h, 96 h, 120 h, 144 h, and 168 h post-dose in PK lead-in phase of dose-escalation phase, and plasma samples were also taken at pre-dose and 0.5 h, 1 h, 2 h, 3 h, 4 h, 6 h, 8 h, 12 h, and 24 h post-dose in cycle 1 day 1 of dose-expansion phase. During continuous dosing, serial plasma samples were collected at pre-dose in cycle 1 day 15, pre-dose in cycle 1 day 22, pre-dose and 0.5 h, 1 h, 2 h, 3 h, 4 h, 6 h, 8 h, 12 h, and 24 h post-dose in cycle 1 day 28 for all dose cohorts. The following PK parameters were assessed: area under the concentration-time curve from the time of dosing extrapolated to infinity, based on the last observed concentration (AUCINF_obs); area under the concentration-time curve from the time of dosing to the time of last observation (AUClast); maximum concentration (Cmax); time to maximum concentration (Tmax); elimination half-life (T1/2); and mean residence time from the time of dosing to the time of the last measurable concentration (MRTlast).

[3] = 100 mg, cycle 1 day 28 of dose-expansion phase, 100 mg (n=5), mean
[4] = 100 mg, single dose, cycle 1 day 1 of dose-expansion phase, 100 mg (n=5), mean
[5] = 450 mg, cycle 1 day 28 of dose-expansion phase, 450 mg (n=10), mean
[6] = 450 mg, single dose, cycle 1 day 1 of dose-expansion phase, 450 mg (n=10), mean
[7] = 600 mg, cycle 1 day 28 of dose-expansion phase, 600 mg (n=10), mean
[8] = 600 mg, single dose, cycle 1 day 1 of dose-expansion phase, 600 mg (n=10), mean
[9] = cycle 1 day 28 of dose-escalation phase, 50 mg (n=2), mean
[10] = cycle 1 day 28 of dose-escalation phase, 100 mg (n=3), mean
[11] = cycle 1 day 28 of dose-escalation phase, 200 mg (n=3), mean
[12] = cycle 1 day 28 of dose-escalation phase, 300 mg (n=3), mean
[13] = cycle 1 day 28 of dose-escalation phase, 450 mg (n=3), mean

COc1cc(N2CCC(N3CCN(C)CC3)CC2)ccc1Nc1nc2c(c(Nc3ccccc3S(=O)(=O)NC(C)C)n1)CCN2 [Conteltinib]
anti-tumor activity in xenograft models [1]: marked anti-tumor activity | Cmax ([2]; 100 mg, Cmax): 123 ng/mL | AUC(0-t) [2, 3]: 1710 ng·h/mL | MRT last [2, 3]: 10.7 h | AUC(0-inf) ([2]; 100 mg, cycle 1 day 28 of dose-expansion phase, 100 mg (n=5), mean, read-out: AUCINF_obs): 6460 ng·h/mL | half-life [2, 3]: 53.2 h | Tmax [2, 3]: 2 h | AUC(0-t) [2, 4]: 737 ng·h/mL | MRT last [2, 4]: 8.9 h | AUC(0-inf) ([2]; 100 mg, single dose, cycle 1 day 1 of dose-expansion phase, 100 mg (n=5), mean, read-out: AUCINF_obs): 1310 ng·h/mL | Cmax ([2]; 100 mg, single dose, cycle 1 day 1 of dose-expansion phase, 100 mg (n=5), mean, read-out: Cmax): 85.5 ng/mL | half-life [2, 4]: 26.7 h | Tmax [2, 4]: 2.7 h | AUC(0-t) [2, 5]: 7040 ng·h/mL | MRT last [2, 5]: 10.5 h | AUC(0-inf) ([2]; 450 mg, cycle 1 day 28 of dose-expansion phase, 450 mg (n=10), mean, read-out: AUCINF_obs): 15700 ng·h/mL | Cmax ([2]; 450 mg, cycle 1 day 28 of dose-expansion phase, 450 mg (n=10), mean, read-out: Cmax): 491 ng/mL | half-life [2, 5]: 26.3 h | Tmax [2, 5]: 3 h | AUC(0-t) [2, 6]: 3060 ng·h/mL | MRT last [2, 6]: 9.3 h | AUC(0-inf) ([2]; 450 mg, single dose, cycle 1 day 1 of dose-expansion phase, 450 mg (n=10), mean, read-out: AUCINF_obs): 6340 ng·h/mL | Cmax ([2]; 450 mg, single dose, cycle 1 day 1 of dose-expansion phase, 450 mg (n=10), mean, read-out: Cmax): 328 ng/mL | Tmax [2, 6]: 2.3 h | AUC(0-inf) ([2]; 600 mg, AUCINF_obs): 7150 ng·h/mL | AUC(0-t) [2, 7]: 11900 ng·h/mL | AUC(0-inf) ([2]; 600 mg, cycle 1 day 28 of dose-expansion phase, 600 mg (n=10), mean, read-out: AUCINF_obs): 32500 ng·h/mL | Cmax ([2]; 600 mg, cycle 1 day 28 of dose-expansion phase, 600 mg (n=10), mean, read-out: Cmax): 772 ng/mL | half-life [2, 7]: 37.1 h | Tmax [2, 7]: 3.3 h | AUC(0-t) [2, 8]: 4610 ng·h/mL | MRT last [2, 8]: 9.8 h | Cmax ([2]; 600 mg, single dose, cycle 1 day 1 of dose-expansion phase, 600 mg (n=10), mean, read-out: Cmax): 472 ng/mL | half-life [2, 8]: 16.7 h | Tmax [2, 8]: 4.6 h | AUC(0-t) [2, 9]: 683 ng·h/mL | AUC(0-inf) ([2]; cycle 1 day 28 of dose-escalation phase, 50 mg (n=2), mean, read-out: AUCINF_obs): 16700 ng·h/mL | Cmax ([2]; cycle 1 day 28 of dose-escalation phase, 50 mg (n=2), mean, read-out: Cmax): 42.7 ng/mL | half-life [2, 9]: 352 h | Tmax [2, 9]: 1.5 h | AUC(0-t) [2, 10]: 1480 ng·h/mL | AUC(0-inf) ([2]; cycle 1 day 28 of dose-escalation phase, 100 mg (n=3), mean, read-out: AUCINF_obs): 6110 ng·h/mL | Cmax ([2]; cycle 1 day 28 of dose-escalation phase, 100 mg (n=3), mean, read-out: Cmax): 106 ng/mL | half-life [2, 10]: 61.1 h | Tmax [2, 10]: 2.7 h | AUC(0-t) [2, 11]: 3570 ng·h/mL | MRT last [2, 11]: 11.2 h | AUC(0-inf) ([2]; cycle 1 day 28 of dose-escalation phase, 200 mg (n=3), mean, read-out: AUCINF_obs): 12400 ng·h/mL | Cmax ([2]; cycle 1 day 28 of dose-escalation phase, 200 mg (n=3), mean, read-out: Cmax): 259 ng/mL | half-life [2, 11]: 42.2 h | Tmax [2, 11]: 3 h | AUC(0-t) [2, 12]: 4860 ng·h/mL | AUC(0-inf) ([2]; cycle 1 day 28 of dose-escalation phase, 300 mg (n=3), mean, read-out: AUCINF_obs): 19000 ng·h/mL | Cmax ([2]; cycle 1 day 28 of dose-escalation phase, 300 mg (n=3), mean, read-out: Cmax): 282 ng/mL | half-life [2, 12]: 50.9 h | Tmax [2, 12]: 3 h | AUC(0-t) [2, 13]: 8050 ng·h/mL | MRT last [2, 13]: 11.6 h | AUC(0-inf) ([2]; cycle 1 day 28 of dose-escalation phase, 450 mg (n=3), mean, read-out: AUCINF_obs): 34400 ng·h/mL | Cmax ([2]; cycle 1 day 28 of dose-escalation phase, 450 mg (n=3), mean, read-out: Cmax): 474 ng/mL | half-life [2, 13]: 48.6 h | Tmax [2, 13]: 4.3 h | AUC(0-t) ([2]; cycle 1 day 28 of dose-escalation phase, 600 mg (n=7), mean): 14000 ng·h/mL
